Results published in patent US20220364141A1, “Tryptase Activity Measurement Substrate” (National University Corporation Tokyo University of …, priority 2019, published 2022).
The star is where a group is joined. AMC = Cc1cc(=O)oc2cc(N*)ccc12; Tos = Cc1ccc(S(=O)(=O)*)cc1

Tested on: human lung tryptase
Assay: Screening of tryptase substrates: responsiveness of fluorescent MCA substrates to tryptase
Format: biochemical
Conditions: relative value with the sensitivity of ^iBoc-Ala-Ala-Arg-MCA defined as 100; 100 μM substrate, 50 mM Tris-HCl pH 8.0, ex 365 nm / em 470 nm
Method: In addition to reference to past documents as described above, ^iBoc-Y-X-Arg-MCA in which Gly, Ala, Abu, Val, Pro, Phe or hydrophilic Lys having distinctive bulkiness was introduced to positions P2 and P3 was synthesized as listed in Table 1 by a peptide library approach, and activity measurement was performed. Abu (2-aminobutyric acid) is a non-protein amino acid, but was added as an optimum peptide sequence search tool.
The activity measurement was performed by the following method.
(1) A stock of a substrate solution was provided as a 2.0 mM solution in DMSO. (2) The stock of the substrate solution was diluted 20-fold with 50 mM Tris-HCl (pH 8.0) to prepare a 100 μM solution. 100 μL thereof was added to a polypropylene microtube, further 2 μL of a commercially available tryptase solution (manufactured by Cappel Laboratories, Inc.) was added thereto, and the tube was lightly vortexed for mixing. Immediately thereafter, change in fluorescence intensity at 470 nm was measured at an excitation wavelength of 365 nm using an enzyme activity measurement apparatus (manufactured by Peptide Support Ltd., prototype).

| Molecule | Tryptase activity |
| --- | --- |
| Cc1cc(=O)oc2cc(NC(=O)C(CCCNC(=N)N)NC(=O)OCC(C)C)ccc12 (stereo not drawn) [^iBoc-Arg-MCA] | 0 |
| Tos-Gly-Pro-Arg-{AMC} [reference compound] | 25 |
| ^iBoc-Abu-Abu-Arg-MCA | 69 |
| ^iBoc-Abu-Ala-Arg-MCA | 109 |
| ^iBoc-Ala-Abu-Arg-MCA | 80 |
| ^iBoc-Ala-Ala-Arg-MCA | 100 |
| ^iBoc-Ala-Lys-Arg-MCA | 11 |
| ^iBoc-Ala-Phe-Arg-MCA | 1 |
| ^iBoc-Ala-Val-Arg-MCA | 50 |
| ^iBoc-Gly-Gly-Arg-MCA | 0 |
| ^iBoc-Gly-Pro-Arg-MCA | 9 |
| ^iBoc-Lys-Ala-Arg-MCA | 167 |
| ^iBoc-Lys-Gly-Arg-MCA | 75 |
| ^iBoc-Lys-Pro-Arg-MCA | 175 |
| ^iBoc-Phe-Ala-Arg-MCA | 62 |
| ^iBoc-Phe-Gly-Arg-MCA | 5 |
| ^iBoc-Phe-Ser-Arg-MCA | 11 |
| ^iBoc-Val-Ala-Arg-MCA | 53 |
| ^iBoc-Val-Pro-Arg-MCA | 20 |

Same assay, conditions: screening of Table 1

| Molecule | tryptase responsiveness compared with ^iBoc-Ala-Ala-Arg-MCA (in words) |
| --- | --- |
| ^iBoc-Abu-Ala-Arg-MCA | higher tryptase responsiveness than that of ^iBoc-Ala-Ala-Arg-MCA |
| ^iBoc-Lys-Ala-Arg-MCA | higher tryptase responsiveness than that of ^iBoc-Ala-Ala-Arg-MCA |
| ^iBoc-Lys-Pro-Arg-MCA | tryptase responsiveness slightly less than two times higher than that of ^iBoc-Ala-Ala-Arg-MCA |

Tested on: Tryptase in Serum
Assay: Human serum enzyme activity with Suc-Ala-Ala-Arg-MCA-linked poly(L-lysine) substrate after addition of inhibitors
Format: biochemical
Conditions: human serum; Suc-Ala-Ala-Arg-MCA-linked poly(L-lysine) substrate
Method: Suc-Ala-Ala-Arg-MCA-linked poly(L-lysine) prepared in Example 2 was used to test whether to be able to specifically measure tryptase activity in serum.
(1) 20.0 mg of Suc-Ala-Ala-Arg-MCA-linked poly(L-lysine) was dissolved in 50 mL of 50 mM Tris-HCl (pH 8.0). (2) 2 μL of commercially available human serum (manufactured by BioWest) was mixed with 2 μL of PBS(−) (pH 7.4) (control) or 2 μL of 10 μM nafamostat (tryptase inhibitor, manufactured by Tokyo Chemical Industry Co., Ltd.) or 2 μL of 10 U/mL hirudin (thrombin inhibitor, manufactured by Sigma-Aldrich Co., LLC). After a lapse of 10 minutes at room temperature, each mixed solution was added to 100 μL of the solution prepared in the step (1). Immediately thereafter, enzyme activity was measured.

| Molecule | inhibition of enzyme activity in serum detected with the macromolecular substrate (in words) |
| --- | --- |
| N=C(N)c1ccc2cc(OC(=O)c3ccc(N=C(N)N)cc3)ccc2c1 [nafamostat] | completely inhibited |

Same assay, conditions: relative value with serum + PBS(-) defined as 100; human serum preincubated 10 min with 2 μL of 10 μM nafamostat or 10 U/mL hirudin; substrate Suc-Ala-Ala-Arg-MCA-linked poly(L-lysine)

| Molecule | Enzyme activity |
| --- | --- |
| N=C(N)c1ccc2cc(OC(=O)c3ccc(N=C(N)N)cc3)ccc2c1 [nafamostat] | 0 |
| hirudin | 83 |
